Measured values from patent US6114175A, “Compound for the antemortem diagnosis of Alzheimer's Disease and in vivo imaging and prevention of amyloid deposition” (priority 1998, dated 2000).
Entries after “also recorded” stand apart in the source; their conditions may differ. Like-named read-outs stand apart in the source and are kept apart here. Values belong to the compound of their own block, whether it stands above or below them.

Key:
AD brain [1] = test: Histologic staining of human AD brain sections; conditions: fluorescence microscopy
Procedure: 26: 241-242 (1973) with 1 mM 1,4-bis(3-carboxy-4-hydroxyphenylethenyl)-benzene substituted for Congo red, but the procedure was otherwise identical. Stained slides were examined using fluorescence microscopy.
(§1) The staining method was that of Stokes and Trickey, J. Clin. Pathol. 26: 241-242 (1973) with 1,4-bis(3-carboxy-4-hydroxyphenylethenyl)-benzene substituted for Congo red.

[2] = tested on: transgenic mouse brain [Tg(HuAPP695.SWE)2576]; test: Histologic staining of transgenic mouse brain sections; conditions: fluorescence microscopy
Excerpt: as §1

Aβ(10-43) [3] = target: T1, Aβ(10-43) (Homo sapiens, UniProt P05067); test: Inhibition of [^14 C]Chrysamine G binding to Aβ(10-43); conditions: for potency/affinity relative to another compound: Congo red or the series
T1 sequence (P05067 681-714): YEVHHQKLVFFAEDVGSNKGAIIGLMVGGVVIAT

[4] = Octanol/water partitioning; conditions: phosphate buffered saline, pH 7.4
AD brain [5] = test: Scatchard analysis of [^14 C]CG binding to AD brain; set-up: species or system human
control brain [6] = test: Scatchard analysis of [^14 C]CG binding to control brain; set-up: species or system human
AD brain [7] = test: Total [^14 C]Chrysamine G binding in AD brain homogenates
Aβ(10-43) [8] = target: T1, Aβ(10-43)
[9] = Tissue levels and metabolism of [^14 C]Chrysamine G in mice
control brain [10] = test: Total [^14 C]Chrysamine G binding in control brain homogenates
Aβ(10-43) [11] = target: T1, Aβ(10-43); test: Scatchard analysis of Chrysamine G binding to synthetic Aβ(10-43)
PC-12 cells = test: Protection from Aβ(25-35)-induced toxicity in PC-12 cells (MTT reduction); conditions: for protection against Aβ(25-35)-induced toxicity: 1 μM Aβ(25-35) (FIG. 14)
[12] = cited from earlier work
[13] = mouse; Tubis et al.; cited from earlier work
Aβ [14] = conditions: cited from earlier work
pancreatic islet cells = conditions: cited from earlier work
Aβ [15] = conditions: Lorenzo and Yankner; cited from earlier work

Compound: O=C(O)c1cc(C=Cc2ccc(C=Cc3ccc(O)c(C(=O)O)c3)cc2)ccc1O [1,4-bis(3-carboxy-4-hydroxyphenylethenyl)-benzene]
staining of human AD brain (AD brain [1]): much more intense than that observed with Chrysamine G, Congo red, or Thioflavin S; also recorded: Visible are a large number of neuritic plaques, a neurofibrillary tangle and frequent neuropil threads
staining of transgenic mouse brain [2]: intensely stained plaque

Compound: O=C(O)c1cc(N=Nc2ccc(-c3ccc(N=Nc4ccc(O)c(C(=O)O)c4)cc3S(=O)(=O)O)c(S(=O)(=O)O)c2)ccc1O [2,2'-(SO3)2 CG]
binding activity (Aβ(10-43) [3]): inactivity

Compound: O=C(O)c1cc(N=Nc2ccc(-c3ccc(N=Nc4ccc(O)c(C(=O)O)c4)c(C(=O)O)c3)cc2C(=O)O)ccc1O [3,3'-(COOH)2 CG]
loss of activity from Chrysamine G (Aβ(10-43) [3]; relative to Chrysamine G): 7 fold

Compound: O=C(O)c1cc(F)cc(N=Nc2ccc(-c3ccc(N=Nc4cc(F)cc(C(=O)O)c4O)cc3)cc2)c1O [(5-FSA)CG]
potency/affinity relative to another compound (Aβ(10-43) [3]; relative to Chrysamine G): one-third as potent as Chrysamine G itself

Compound: Nc1c(/N=N/c2ccc(-c3ccc(/N=N/c4cc(S(=O)(=O)O)c5ccccc5c4N)cc3)cc2)cc(S(=O)(=O)O)c2ccccc12 [Congo red]
blood-brain barrier crossing ([12]; guinea pig, in vivo): does not cross the blood-brain barrier well
brain/kidney ratio ([12]; guinea pigs): approximately 0.07
LD50 [13]: 190 mg/kg
concentration for complete protection against Aβ-induced toxicity (Aβ [14]): ≤ 20 µM
concentration for protection against Aβ-induced toxicity (Aβ [14]): over 2 μM
effect on Aβ-induced neurotoxicity (Aβ [14]; in vitro): inhibits fibrillar Aβ neurotoxicity; also recorded: inhibits Aβ-induced neurotoxicity and cell degeneration in vitro
effect on amylin toxicity to pancreatic islet cells (pancreatic islet cells): inhibit pancreatic islet cell toxicity; also recorded: protect pancreatic islet cells from the toxicity caused by amylin
effect on aggregation of Aβ (Aβ [15]): does inhibit aggregation of Aβ
logD [4]: -0.177
Ki (Aβ(10-43) [3]; read-out: Ki for inhibition of [^14 C]Chrysamine G binding to Aβ(10-43), [^14 C]Chrysamine G 0.100-0.125 μM): 2800 nM

Compound: Oc1ccc(N=Nc2ccc(-c3ccc(N=Nc4ccc(O)cc4)cc3)cc2)cc1 [phenol derivative]
binding activity (Aβ(10-43) [3]): completely destroyed binding affinity; also recorded: does not bind to synthetic Aβ
protection against Aβ(25-35)-induced toxicity (PC-12 cells): no protective effects, and perhaps enhanced the toxicity of Aβ

Compound: O=C(O)c1ccccc1O [salicylic acid]
binding activity (Aβ(10-43) [3]): total lack of binding activity; also recorded: inactivity

The next lines start with results.

potency/affinity relative to another compound (Aβ(10-43) [3]; relative to Chrysamine G): about half that of Chrysamine G
Compound: O=C(O)c1cc(N=Nc2ccc(-c3ccc(N=Nc4ccc(O)c(C(=O)O)c4)c(Br)c3)cc2Br)ccc1O [3,3'-Br2 CG]

potency/affinity relative to another compound (Aβ(10-43) [3]; relative to Chrysamine G): about half that of Chrysamine G
Compound: O=C(O)c1cc(N=Nc2ccc(-c3ccc(N=Nc4ccc(O)c(C(=O)O)c4)c(Cl)c3)cc2Cl)ccc1O [3,3'-Cl2 CG]

logD [4]: 2.05
potency/affinity relative to another compound (Aβ(10-43) [3]; relative to Chrysamine G): about half that of Chrysamine G
Compound: O=C(O)c1cc(N=Nc2ccc(-c3ccc(N=Nc4ccc(O)c(C(=O)O)c4)c(I)c3)cc2I)ccc1O [3,3'-I2 CG]

potency/affinity relative to another compound (Aβ(10-43) [3]; relative to Chrysamine G): slightly more potent than Chrysamine G
Compound: O=C(O)c1cc(N=Nc2ccc(-c3ccc(N=Nc4ccc(O)c(C(=O)O)c4)c(I)c3)cc2)ccc1O [3-ICG]

Ki (Aβ(10-43) [3]): 94 ± 20 nM
potency/affinity relative to another compound (Aβ(10-43) [3]; relative to Chrysamine G): highest affinity compound in this series
Compound: O=C(O)c1c(O)ccc(N=Nc2ccc(-c3ccc(N=Nc4ccc(O)c(C(=O)O)c4O)cc3)cc2)c1O [(6-OHSA)CG]

Bmax, AD brain (Table 1) (AD brain [5]; n = 5): 0.784 ± .061 pmol/μg prot
Kd (AD brain [5]; n = 5, read-out: KD, AD brain (Table 1)): 390 ± 48 nM
Bmax in AD brain higher than control (AD brain [5]; p=0.09, not significant): 36%
KD in AD brain lower than control (AD brain [5]; p=0.29, not significant): 16%
Bmax (typical AD brain sample) (AD brain [5]; sample with 48 NP/×200 magnification): 790 fmol/μg protein
Kd (AD brain [5]; sample with 48 NP/×200 magnification, read-out: KD (typical AD brain sample)): 350 nM
Bmax, control brain (Table 1) (control brain [6]; n = 6): 0.576 ± .092 pmol/μg prot
Kd (control brain [6]; n = 6, read-out: KD, control brain (Table 1)): 470 ± 49 nM
Bmax (typical control sample) (control brain [6]; single typical control): 614 fmol/μg protein
Kd (control brain [6]; single typical control, read-out: KD (typical control sample)): 480 nM
logD [4]: 1.78
saturable (specific) binding as share of total binding in AD brain (AD brain [7]; 20 μM unlabelled CG defines non-saturable): 60-80%
correlation (r) of [^14 C]CG binding with NPs (AD brain [7]; AD brains alone, p=0.007): 0.59
correlation (r) of [^14 C]CG binding with NFTs (AD brain [7]; AD brains alone, p=0.026): 0.50
total binding, Head of Caudate (AD brain [7]; AD, n = 7, p = 0.14): 123 ± 22 fmol/μg protein
total binding, Frontal Pole (AD brain [7]; AD, n = 10, p < 0.006): 124 ± 16 fmol/μg protein
total binding, Superior/Middle Frontal (AD brain [7]; AD, n = 11, p < 0.005): 130 ± 21 fmol/μg protein
total binding, Superior Temporal (AD brain [7]; AD, n = 11, p < 0.02): 121 ± 14 fmol/μg protein
total binding, Inferior Parietal (AD brain [7]; AD, n = 11, p < 0.03): 137 fmol/μg protein
total binding, Cerebellum (AD brain [7]; AD, n = 11, p = 0.91): 73 ± 9 fmol/μg protein
correlation (r) of CG binding with NP counts (AD brain [7]; brains with cerebrovascular amyloid, p=0.15): 0.49
correlation (r) of CG binding with NP counts (AD brain [7]; brains without amyloid angiopathy, p=0.01): 0.79
correlation (r) of [^14 C]CG binding with NFTs (AD brain [7]; controls included, p=0.001): 0.60
correlation (r) of [^14 C]CG binding with NPs (AD brain [7]; controls included, p=0.001): 0.69
dissociation t1/2 (Aβ(10-43) [8]): 55 ± 9.4 s
total binding, Head of Caudate (control brain [10]; n = 4): 73 ± 11 fmol/μg protein
total binding, Frontal Pole (control brain [10]; n = 6): 58 ± 8 fmol/μg protein
total binding, Cerebellum (control brain [10]; n = 8): 75 ± 13 fmol/μg protein
total binding, Inferior Parietal (control brain [10]; n = 8): 76 ± 13 fmol/μg protein
total binding, Superior Temporal (control brain [10]; n = 8): 66 ± 17 fmol/μg protein
total binding, Superior/Middle Frontal (control brain [10]; n = 8): 54 ± 10 fmol/μg protein
energy of binding (from KD) (Aβ(10-43) [11]; KD 0.26 μM): roughly 38 KJ/mole
Bmax, lower affinity component (Aβ(10-43) [11]; less well defined): 18.7 nmoles Chrysamine G/mg Aβ(10-43)
Kd (Aβ(10-43) [11]; read-out: KD, higher affinity component (Scatchard), Aβ(10-43), two-site model): 260 nM
Kd (Aβ(10-43) [11]; read-out: KD, lower affinity component (Scatchard), less well defined): 4010 nM
Bmax, higher affinity component (Aβ(10-43) [11]; two-site model): 3.18 nmoles Chrysamine G/mg Aβ(10-43)
Compound: O=C(O)c1cc(N=Nc2ccc(-c3ccc(N=Nc4ccc(O)c(C(=O)O)c4)cc3)cc2)ccc1O [Chrysamine G, 4,4'-bis(3-carboxy-4-hydroxyphenylazo)-biphenyl]
overlap of binding between control and AD samples (AD brain [7]; superior/middle frontal cortex): no overlap between control and any of the AD samples
metabolism ([9]; 60 min after i.v. injection, brain and liver): no significant metabolism; also recorded: essentially all of the radioactivity found in the brain and liver proved to be unchanged Chrysamine G
entry into brain ([9]; normal mouse brain): does get into normal mouse brain, and the brain/blood ratio is high
protection against Aβ(25-35)-induced toxicity (PC-12 cells): protective effects at 0.1 and 1 μM
protective effect dependence (PC-12 cells; 0.01 to 10 μM Aβ(25-35) and 0.03 to 20 μM CG): protective effect which is dependent on both the concentration of Aβ(25-35) (FIG. 12) as well as the concentration of Chrysamine G
minimal effective concentration (PC-12 cells; Rattus norvegicus, PC-12, 24 h, read-out: concentration at which protective effect is evident): 0.2 µM
MTT reduction in the absence of Aβ(25-35) vs control (PC-12 cells; any of the Chrysamine G concentrations): no significant difference

Ki (Aβ(10-43) [3]): 73000 nM
binding activity (Aβ(10-43) [3]): decrease in affinity
energy of binding (from Ki) (Aβ(10-43) [3]; Ki of 73 μM): 5.5 kcal/mol
expected energy of binding (one-half of Chrysamine G) (Aβ(10-43) [3]; predicted value): about 19 KJ/mole
Compound: O=C(O)c1cc(N=Nc2ccccc2)ccc1O [aniline derivative]
